# Target: NAE (heterodimer of APPBP1 and UBA3) (Homo sapiens (Human), UniProt Q8TBC4)
# Test: Nedd8 conjugation inhibitory activity (AlphaScreen assay)
# Format: biochemical
# Settings: purified NAE, GST-UBC12, Biotin-Nedd8, ATP
# NAE (heterodimer of APPBP1 and UBA3), sequence (Q8TBC4 whole entry): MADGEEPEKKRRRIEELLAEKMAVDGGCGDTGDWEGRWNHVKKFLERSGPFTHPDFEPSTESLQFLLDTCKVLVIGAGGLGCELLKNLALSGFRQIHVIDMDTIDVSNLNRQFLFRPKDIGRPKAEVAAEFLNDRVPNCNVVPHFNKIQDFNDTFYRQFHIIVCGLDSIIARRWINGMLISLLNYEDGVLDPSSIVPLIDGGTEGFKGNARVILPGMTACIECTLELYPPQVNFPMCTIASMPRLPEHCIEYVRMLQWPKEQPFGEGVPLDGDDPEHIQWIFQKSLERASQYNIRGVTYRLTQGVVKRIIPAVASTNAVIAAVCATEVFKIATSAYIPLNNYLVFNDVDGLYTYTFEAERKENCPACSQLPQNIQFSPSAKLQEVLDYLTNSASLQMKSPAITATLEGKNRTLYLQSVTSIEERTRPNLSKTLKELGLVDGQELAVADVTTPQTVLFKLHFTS
# NAE (heterodimer of APPBP1 and UBA3), sequence (Q13564 whole entry partner): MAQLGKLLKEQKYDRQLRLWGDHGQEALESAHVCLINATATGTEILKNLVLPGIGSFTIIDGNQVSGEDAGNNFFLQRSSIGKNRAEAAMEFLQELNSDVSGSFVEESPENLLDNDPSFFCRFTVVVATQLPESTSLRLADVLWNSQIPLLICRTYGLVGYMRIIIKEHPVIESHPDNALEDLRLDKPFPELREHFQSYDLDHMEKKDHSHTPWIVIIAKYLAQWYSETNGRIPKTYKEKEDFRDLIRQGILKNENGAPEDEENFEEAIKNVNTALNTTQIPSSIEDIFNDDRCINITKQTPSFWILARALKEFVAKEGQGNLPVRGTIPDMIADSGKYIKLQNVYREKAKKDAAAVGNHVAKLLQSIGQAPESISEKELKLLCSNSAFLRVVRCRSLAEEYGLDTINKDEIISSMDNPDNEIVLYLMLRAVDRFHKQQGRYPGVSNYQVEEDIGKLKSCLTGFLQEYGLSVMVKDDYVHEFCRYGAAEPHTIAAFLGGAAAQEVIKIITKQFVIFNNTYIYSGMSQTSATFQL
row,Compound,IC50 [µM]
1,"Nc1ncnc2c1c(C#Cc1c(F)cc(O)cc1F)cn2[C@@H]1O[C@H](CNS(N)(=O)=O)[C@@H](O)[C@H]1O [Example 54, 4-Amino-5-[2-(2,6-difluoro-4-hydroxy-phenyl)ethynyl]-7-[(2R,3R,4S,5R)-3,4-dihydroxy-5-[(sulfamoylamino)methyl]tetrahydrofuran-2-yl]pyrrolo[2,3-d]pyrimidine]",0.0045
2,"CC(C)Oc1cccc(F)c1C#Cc1cn([C@@H]2O[C@H](CNS(N)(=O)=O)[C@@H](O)[C@H]2O)c2ncnc(N)c12 [Example 56, 4-Amino-7-[(2R,3R,4S,5R)-3,4-dihydroxy-5-[(sulfamoylamino)methyl]tetrahydrofuran-2-yl]-5-[2-(2-fluoro-6-isopropoxy-phenyl)ethynyl]pyrrolo[2,3-d]pyrimidine]",0.0053
3,"N#Cc1cc(F)c(C#Cc2cn([C@@H]3O[C@H](CNS(N)(=O)=O)[C@@H](O)[C@H]3O)c3ncnc(N)c23)c(F)c1 [Example 57, 4-Amino-5-[2-(4-cyano-2,6-difluoro-phenyl)ethynyl]-7-[(2R,3R,4S,5R)-3,4-dihydroxy-5-[(sulfamoylamino)methyl]tetrahydrofuran-2-yl]pyrrolo[2,3-d]pyrimidine]",0.0058
4,"CSc1cccc(F)c1C#Cc1cn([C@@H]2O[C@H](CNS(N)(=O)=O)[C@@H](O)[C@H]2O)c2ncnc(N)c12 [Example 59, 4-Amino-7-[(2R,3R,4S,5R)-3,4-dihydroxy-5-[(sulfamoylamino)methyl]tetrahydrofuran-2-yl]-5-[2-(2-fluoro-6-methylsulfanyl-phenyl)ethynyl]pyrrolo[2,3-d]pyrimidine]",0.0085
5,"Nc1ncnc2c1c(C#Cc1c(F)cccc1OCC(F)(F)F)cn2[C@@H]1O[C@H](CNS(N)(=O)=O)[C@@H](O)[C@H]1O [Example 61, 4-Amino-7-[(2R,3R,4S,5R)-3,4-dihydroxy-5-[(sulfamoylamino)methyl]tetrahydrofuran-2-yl]-5-[2-[2-fluoro-6-(2,2,2-trifluoroethoxy)phenyl]ethynyl]pyrrolo[2,3-d]pyrimidine]",0.0038
6,"CCOc1cccc(OC)c1C#Cc1cn([C@@H]2O[C@H](CNS(N)(=O)=O)[C@@H](O)[C@H]2O)c2ncnc(N)c12 [Example 62, 4-Amino-7-[(2R,3R,4S,5R)-3,4-dihydroxy-5-[(sulfamoylamino)methyl]tetrahydrofuran-2-yl]-5-[2-(2-ethoxy-6-methoxy-phenyl)ethynyl]pyrrolo[2,3-d]pyrimidine]",0.016
7,"COc1ccc2cccnc2c1C#Cc1cn([C@@H]2O[C@H](CNS(N)(=O)=O)[C@@H](O)[C@H]2O)c2ncnc(N)c12 [Example 63, 8-[2-[4-Amino-7-[(2R,3R,4S,5R)-3,4-dihydroxy-5-[(sulfamoylamino)methyl]tetrahydrofuran-2-yl]pyrrolo[2,3-d]pyrimidin-5-yl]ethynyl]-7-methoxyquinoline]",0.011
8,"Nc1ncnc2c1c(C#Cc1c(F)cc(OCn3nccn3)cc1F)cn2[C@@H]1O[C@H](CNS(N)(=O)=O)[C@@H](O)[C@H]1O [Example 67, 4-Amino-5-[2-[2,6-difluoro-4-(triazol-2-ylmethoxy)phenyl]ethynyl]-7-[(2R,3R,4S,5R)-3,4-dihydroxy-5-[(sulfamoylamino)methyl]tetrahydrofuran-2-yl]pyrrolo[2,3-d]pyrimidine]",0.0085
9,"Nc1ncnc2c1c(C#Cc1c(F)ccnc1F)cn2[C@@H]1O[C@H](CNS(N)(=O)=O)[C@@H](O)[C@H]1O [Example 69, 4-Amino-5-[2-(2,4-difluoro-3-pyridyl)ethynyl]-7-[(2R,3R,4S,5R)-3,4-dihydroxy-5-[(sulfamoylamino)methyl]tetrahydrofuran-2-yl]pyrrolo[2,3-d]pyrimidine]",0.015
10,"CCS(=O)(=O)c1cc(N2CCCC2)cc(F)c1C#Cc1cn([C@@H]2O[C@H](CNS(N)(=O)=O)[C@@H](O)[C@H]2O)c2ncnc(N)c12 [Example 70, 4-Amino-7-[(2R,3R,4S,5R)-3,4-dihydroxy-5-[(sulfamoylamino)methyl]tetrahydrofuran-2-yl]-5-[2-(2-ethylsulfonyl-6-fluoro-4-pyrrolidin-1-yl-phenyl)ethynyl]pyrrolo[2,3-d]pyrimidine]",0.013
11,"COc1cncc(F)c1C#Cc1cn([C@@H]2O[C@H](CNS(N)(=O)=O)[C@@H](O)[C@H]2O)c2ncnc(N)c12 [Example 71, 4-Amino-7-[(2R,3R,4S,5R)-3,4-dihydroxy-5-[(sulfamoylamino)methyl]tetrahydrofuran-2-yl]-5-[2-(3-fluoro-5-methoxy-4-pyridyl)ethynyl]pyrrolo[2,3-d]pyrimidine]",0.014
12,"CCS(=O)(=O)c1cc(N2CC[C@@H](O)C2)cc(F)c1C#Cc1cn([C@@H]2O[C@H](CNS(N)(=O)=O)[C@@H](O)[C@H]2O)c2ncnc(N)c12 [Example 72, 4-Amino-7-[(2R,3R,4S,5R)-3,4-dihydroxy-5-[(sulfamoylamino)methyl]tetrahydrofuran-2-yl]-5-[2-[2-ethylsulfonyl-6-fluoro-4-[(3R)-3-hydroxypyrrolidin-1-yl]phenyl]ethynyl]pyrrolo[2,3-d]pyrimidine]",0.0044
13,"Nc1ncnc2c1c(C#Cc1ncc(OCc3ccccc3)cn1)cn2[C@@H]1O[C@H](CNS(N)(=O)=O)[C@@H](O)[C@H]1O [Example 76, 4-Amino-5-[2-(5-benzyloxypyrimidin-2-yl)ethynyl]-7-[(2R,3R,4S,5R)-3,4-dihydroxy-5-[(sulfamoylamino)methyl]tetrahydrofuran-2-yl]pyrrolo[2,3-d]pyrimidine]",0.0051
14,"NC(=O)c1cccc(F)c1C#Cc1cn([C@@H]2O[C@H](CNS(N)(=O)=O)[C@@H](O)[C@H]2O)c2ncnc(N)c12 [Example 79, 2-[2-[4-Amino-7-[(2R,3R,4S,5R)-3,4-dihydroxy-5-[(sulfamoylamino)methyl]tetrahydrofuran-2-yl]pyrrolo[2,3-d]pyrimidin-5-yl]ethynyl]-3-fluorobenzamide]",0.0032
15,"COc1ncc(F)c(C#Cc2cn([C@@H]3O[C@H](CNS(N)(=O)=O)[C@@H](O)[C@H]3O)c3ncnc(N)c23)c1F [Example 80, 4-Amino-5-[2-(3,5-difluoro-2-methoxy-4-pyridyl)ethynyl]-7-[(2R,3R,4S,5R)-3,4-dihydroxy-5-[(sulfamoylamino)methyl]tetrahydrofuran-2-yl]pyrrolo[2,3-d]pyrimidine]",0.014
16,"COc1cnc(OC)c(F)c1C#Cc1cn([C@@H]2O[C@H](CNS(N)(=O)=O)[C@@H](O)[C@H]2O)c2ncnc(N)c12 [Example 81, 4-Amino-7-[(2R,3R,4S,5R)-3,4-dihydroxy-5-[(sulfamoylamino)methyl]tetrahydrofuran-2-yl]-5-[2-(3-fluoro-2,5-dimethoxy-4-pyridyl)ethynyl]pyrrolo[2,3-d]pyrimidine]",0.0056
17,"CCSc1ccccc1C#Cc1cn([C@@H]2O[C@H](CNS(N)(=O)=O)[C@@H](O)[C@H]2O)c2ncnc(N)c12 [Example 82, 4-Amino-7-[(2R,3R,4S,5R)-3,4-dihydroxy-5-[(sulfamoylamino)methyl]tetrahydrofuran-2-yl]-5-[2-(2-ethylsulfanylphenyl)ethynyl]pyrrolo[2,3-d]pyrimidine]",0.01
18,"Nc1ncnc2c1c(C#Cc1cccc3c1S(=O)(=O)CCC3)cn2[C@@H]1O[C@H](CNS(N)(=O)=O)[C@@H](O)[C@H]1O [Example 83, 4-Amino-7-[(2R,3R,4S,5R)-3,4-dihydroxy-5-[(sulfamoylamino)methyl]tetrahydrofuran-2-yl]-5-[2-(1,1-dioxo-3,4-dihydro-2H-thiochromen-8-yl)ethynyl]pyrrolo[2,3-d]pyrimidine]",0.019
19,"Nc1ncnc2c1c(C#Cc1c(F)cccc1S(N)(=O)=O)cn2[C@@H]1O[C@H](CNS(N)(=O)=O)[C@@H](O)[C@H]1O [Example 84, 2-[2-[4-Amino-7-[(2R,3R,4S,5R)-3,4-dihydroxy-5-[(sulfamoylamino)methyl]tetrahydrofuran-2-yl]pyrrolo[2,3-d]pyrimidin-5-yl]ethynyl]-3-fluoro-benzenesulfonamide]",0.0097
20,"Nc1ncnc2c1c(C#Cc1c(F)cccc1OCC1CC1)cn2[C@@H]1O[C@H](CNS(N)(=O)=O)[C@@H](O)[C@H]1O [Example 86, 4-Amino-5-[2-[2-(cyclopropylmethoxy)-6-fluoro-phenyl]ethynyl]-7-[(2R,3R,4S,5R)-3,4-dihydroxy-5-[(sulfamoylamino)methyl]tetrahydrofuran-2-yl]pyrrolo[2,3-d]pyrimidine]",0.0054
21,"Nc1ncnc2c1c(C#Cc1ncccc1F)cn2[C@@H]1O[C@H](CNS(N)(=O)=O)[C@@H](O)[C@H]1O [Example 88, 4-Amino-7-[(2R,3R,4S,5R)-3,4-dihydroxy-5-[(sulfamoylamino)methyl]tetrahydrofuran-2-yl]-5-[2-(3-fluoro-2-pyridyl)ethynyl]pyrrolo[2,3-d]pyrimidine]",0.018
22,"CSc1ccccc1C#Cc1cn([C@@H]2O[C@H](CNS(N)(=O)=O)[C@@H](O)[C@H]2O)c2ncnc(N)c12 [Example 89, 4-Amino-7-[(2R,3R,4S,5R)-3,4-dihydroxy-5-[(sulfamoylamino)methyl]tetrahydrofuran-2-yl]-5-[2-(2-methylsulfanylphenyl)ethynyl]pyrrolo[2,3-d]pyrimidine]",0.011
23,"Nc1ncnc2c1c(C#Cc1ccccc1S(N)(=O)=O)cn2[C@@H]1O[C@H](CNS(N)(=O)=O)[C@@H](O)[C@H]1O [Example 90, 2-[2-[4-Amino-7-[(2R,3R,4S,5R)-3,4-dihydroxy-5-[(sulfamoylamino)methyl]tetrahydrofuran-2-yl]pyrrolo[2,3-d]pyrimidin-5-yl]ethynyl]benzenesulfonamide]",0.0056
24,"NC(=O)c1cccc(COc2ccc(C#Cc3cn([C@@H]4O[C@H](CNS(N)(=O)=O)[C@@H](O)[C@H]4O)c4ncnc(N)c34)cc2)c1 [Example 91, 3-[[4-[2-[4-Amino-7-[(2R,3R,4S,5R)-3,4-dihydroxy-5-[(sulfamoylamino)methyl]tetrahydrofuran-2-yl]pyrrolo[2,3-d]pyrimidin-5-yl]ethynyl]phenoxy]methyl]benzamide]",0.018
25,"COc1cccc(OC)c1C#Cc1cn([C@@H]2C[C@H](CNS(N)(=O)=O)[C@@H](O)[C@H]2O)c2ncnc(N)c12 [Example 94, 4-Amino-7-[(1R,2S,3R,4R)-2,3-dihydroxy-4-[(sulfamoylamino)methyl]cyclopentyl]-5-[2-(2,6-dimethoxyphenyl)ethynyl]pyrrolo[2,3-d]pyrimidine]",0.021

# Source: US9963456B2, “Pyrrolopyrimidine compound or salt thereof and compositions containing the pyrrolopyrimidine compound or salt thereof” (TAIHO PHARMACEUTICAL CO., LTD., priority 2014, dated 2018)
